The CheMixHub viscosity set
± gives the uncertainty stated by the source.

Test: xn = mol fraction of the nth substance listed

`CCCCOC(C)=O` + CCC(C)O showed a viscosity (293.15 K, 100 kPa, x1 = 0.081) of 2.444 ± 0.29 mPa·s, a viscosity (293.15 K, 100 kPa, x1 = 0.16) of 1.639 ± 0.2 mPa·s and a viscosity (293.15 K, 100 kPa, x1 = 0.24) of 1.195 ± 0.14 mPa·s. The viscosity (293.15 K, 100 kPa, x1 = 0.35) was 0.976 ± 0.12 mPa·s, the viscosity (293.15 K, 100 kPa, x1 = 0.44) was 0.907 ± 0.11 mPa·s and the viscosity (293.15 K, 100 kPa, x1 = 0.5598) was 0.859 ± 0.1 mPa·s. The viscosity (293.15 K, 100 kPa, x1 = 0.6499) was 0.827 ± 0.1 mPa·s, the viscosity (293.15 K, 100 kPa, x1 = 0.74) was 0.794 ± 0.096 mPa·s and the viscosity (293.15 K, 100 kPa, x1 = 0.85) was 0.757 ± 0.091 mPa·s. The viscosity (293.15 K, 100 kPa, x1 = 0.94) was 0.736 ± 0.089 mPa·s, the viscosity (298.15 K, 100 kPa, x1 = 0.081) was 2.041 ± 0.24 mPa·s and the viscosity (298.15 K, 100 kPa, x1 = 0.16) was 1.423 ± 0.17 mPa·s. It also gave a viscosity (298.15 K, 100 kPa, x1 = 0.24) of 1.045 ± 0.13 mPa·s, a viscosity (298.15 K, 100 kPa, x1 = 0.35) of 0.87 ± 0.1 mPa·s and a viscosity (298.15 K, 100 kPa, x1 = 0.44) of 0.805 ± 0.097 mPa·s. The viscosity (298.15 K, 100 kPa, x1 = 0.5598) was 0.768 ± 0.092 mPa·s, the viscosity (298.15 K, 100 kPa, x1 = 0.6499) was 0.746 ± 0.09 mPa·s and the viscosity (298.15 K, 100 kPa, x1 = 0.74) was 0.732 ± 0.088 mPa·s. The viscosity (298.15 K, 100 kPa, x1 = 0.85) was 0.703 ± 0.085 mPa·s, the viscosity (298.15 K, 100 kPa, x1 = 0.94) was 0.681 ± 0.082 mPa·s and the viscosity (303.15 K, 100 kPa, x1 = 0.081) was 1.797 ± 0.22 mPa·s. The viscosity (303.15 K, 100 kPa, x1 = 0.16) was 1.267 ± 0.15 mPa·s, the viscosity (303.15 K, 100 kPa, x1 = 0.24) was 0.941 ± 0.11 mPa·s and the viscosity (303.15 K, 100 kPa, x1 = 0.35) was 0.767 ± 0.092 mPa·s. It also gave a viscosity (303.15 K, 100 kPa, x1 = 0.44) of 0.713 ± 0.086 mPa·s, a viscosity (303.15 K, 100 kPa, x1 = 0.5598) of 0.692 ± 0.083 mPa·s and a viscosity (303.15 K, 100 kPa, x1 = 0.6499) of 0.677 ± 0.081 mPa·s. For the same compound, the viscosity (303.15 K, 100 kPa, x1 = 0.74) was 0.663 ± 0.08 mPa·s, the viscosity (303.15 K, 100 kPa, x1 = 0.85) was 0.649 ± 0.078 mPa·s and the viscosity (303.15 K, 100 kPa, x1 = 0.94) was 0.636 ± 0.077 mPa·s. It also gave a viscosity (308.15 K, 100 kPa, x1 = 0.081) of 1.523 ± 0.18 mPa·s, a viscosity (308.15 K, 100 kPa, x1 = 0.16) of 1.084 ± 0.13 mPa·s and a viscosity (308.15 K, 100 kPa, x1 = 0.24) of 0.844 ± 0.1 mPa·s. For the same compound, the viscosity (308.15 K, 100 kPa, x1 = 0.35) was 0.692 ± 0.083 mPa·s, the viscosity (308.15 K, 100 kPa, x1 = 0.44) was 0.644 ± 0.078 mPa·s and the viscosity (308.15 K, 100 kPa, x1 = 0.5598) was 0.618 ± 0.074 mPa·s. It also gave a viscosity (308.15 K, 100 kPa, x1 = 0.6499) of 0.604 ± 0.073 mPa·s, a viscosity (308.15 K, 100 kPa, x1 = 0.74) of 0.597 ± 0.072 mPa·s and a viscosity (308.15 K, 100 kPa, x1 = 0.85) of 0.592 ± 0.071 mPa·s. For the same compound, the viscosity (308.15 K, 100 kPa, x1 = 0.94) was 0.584 ± 0.07 mPa·s, the viscosity (313.15 K, 100 kPa, x1 = 0.081) was 1.28 ± 0.15 mPa·s and the viscosity (313.15 K, 100 kPa, x1 = 0.16) was 0.951 ± 0.11 mPa·s. The viscosity (313.15 K, 100 kPa, x1 = 0.24) was 0.756 ± 0.091 mPa·s, the viscosity (313.15 K, 100 kPa, x1 = 0.35) was 0.633 ± 0.076 mPa·s and the viscosity (313.15 K, 100 kPa, x1 = 0.44) was 0.585 ± 0.07 mPa·s. The viscosity (313.15 K, 100 kPa, x1 = 0.5598) was 0.555 ± 0.067 mPa·s, the viscosity (313.15 K, 100 kPa, x1 = 0.6499) was 0.544 ± 0.066 mPa·s and the viscosity (313.15 K, 100 kPa, x1 = 0.74) was 0.541 ± 0.065 mPa·s. For the same compound, the viscosity (313.15 K, 100 kPa, x1 = 0.85) was 0.546 ± 0.066 mPa·s, the viscosity (313.15 K, 100 kPa, x1 = 0.94) was 0.542 ± 0.065 mPa·s and the viscosity (318.15 K, 100 kPa, x1 = 0.081) was 1.111 ± 0.13 mPa·s. It also gave a viscosity (318.15 K, 100 kPa, x1 = 0.16) of 0.828 ± 0.1 mPa·s, a viscosity (318.15 K, 100 kPa, x1 = 0.24) of 0.681 ± 0.082 mPa·s and a viscosity (318.15 K, 100 kPa, x1 = 0.35) of 0.575 ± 0.069 mPa·s. For the same compound, the viscosity (318.15 K, 100 kPa, x1 = 0.44) was 0.531 ± 0.064 mPa·s, the viscosity (318.15 K, 100 kPa, x1 = 0.5598) was 0.506 ± 0.061 mPa·s and the viscosity (318.15 K, 100 kPa, x1 = 0.6499) was 0.5 ± 0.1 mPa·s. The viscosity (318.15 K, 100 kPa, x1 = 0.74) was 0.5 ± 0.1 mPa·s, the viscosity (318.15 K, 100 kPa, x1 = 0.85) was 0.502 ± 0.06 mPa·s and the viscosity (318.15 K, 100 kPa, x1 = 0.94) was 0.501 ± 0.06 mPa·s. The viscosity (323.15 K, 100 kPa, x1 = 0.081) was 0.963 ± 0.12 mPa·s, the viscosity (323.15 K, 100 kPa, x1 = 0.16) was 0.748 ± 0.09 mPa·s and the viscosity (323.15 K, 100 kPa, x1 = 0.24) was 0.619 ± 0.075 mPa·s. For the same compound, the viscosity (323.15 K, 100 kPa, x1 = 0.35) was 0.535 ± 0.064 mPa·s, the viscosity (323.15 K, 100 kPa, x1 = 0.44) was 0.497 ± 0.06 mPa·s and the viscosity (323.15 K, 100 kPa, x1 = 0.5598) was 0.477 ± 0.058 mPa·s. For the same compound, the viscosity (323.15 K, 100 kPa, x1 = 0.6499) was 0.466 ± 0.056 mPa·s, the viscosity (323.15 K, 100 kPa, x1 = 0.74) was 0.46 ± 0.06 mPa·s and the viscosity (323.15 K, 100 kPa, x1 = 0.85) was 0.455 ± 0.055 mPa·s. It also gave a viscosity (323.15 K, 100 kPa, x1 = 0.94) of 0.457 ± 0.055 mPa·s.
Work on `CCCN` + CCC(C)O yielded a viscosity (303.15 K, 101 kPa, x1 = 0.008438) of 2.439 ± 0.016 mPa·s, a viscosity (303.15 K, 101 kPa, x1 = 0.01874) of 2.408 ± 0.016 mPa·s and a viscosity (303.15 K, 101 kPa, x1 = 0.02903) of 2.377 ± 0.016 mPa·s. The viscosity (303.15 K, 101 kPa, x1 = 0.04186) was 2.343 ± 0.015 mPa·s, the viscosity (303.15 K, 101 kPa, x1 = 0.0458) was 2.329 ± 0.015 mPa·s and the viscosity (303.15 K, 101 kPa, x1 = 0.05767) was 2.3 ± 0.015 mPa·s. It also gave a viscosity (303.15 K, 101 kPa, x1 = 0.06786) of 2.277 ± 0.015 mPa·s, a viscosity (303.15 K, 101 kPa, x1 = 0.07593) of 2.253 ± 0.015 mPa·s and a viscosity (303.15 K, 101 kPa, x1 = 0.08515) of 2.224 ± 0.015 mPa·s.
Compound `CCCCOC(C)=O` + CCCCCC has a viscosity (298.15 K, 101 kPa, x1 = 0.0521) of 0.3 ± 0.004 mPa·s, a viscosity (298.15 K, 101 kPa, x1 = 0.1491) of 0.319 ± 0.004 mPa·s and a viscosity (298.15 K, 101 kPa, x1 = 0.2486) of 0.341 ± 0.004 mPa·s. It also gave a viscosity (298.15 K, 101 kPa, x1 = 0.3517) of 0.368 ± 0.004 mPa·s, a viscosity (298.15 K, 101 kPa, x1 = 0.4482) of 0.397 ± 0.004 mPa·s and a viscosity (298.15 K, 101 kPa, x1 = 0.4932) of 0.412 ± 0.004 mPa·s. It also gave a viscosity (298.15 K, 101 kPa, x1 = 0.5515) of 0.433 ± 0.004 mPa·s, a viscosity (298.15 K, 101 kPa, x1 = 0.6483) of 0.472 ± 0.004 mPa·s and a viscosity (298.15 K, 101 kPa, x1 = 0.7486) of 0.519 ± 0.005 mPa·s. The viscosity (298.15 K, 101 kPa, x1 = 0.8491) was 0.574 ± 0.005 mPa·s, the viscosity (298.15 K, 101 kPa, x1 = 0.9461) was 0.635 ± 0.005 mPa·s and the viscosity (298.15 K, 101.3 kPa, x1 = 0.1335) was 0.3275 ± 0.0034 mPa·s. For the same compound, the viscosity (298.15 K, 101.3 kPa, x1 = 0.2322) was 0.3509 ± 0.0036 mPa·s, the viscosity (298.15 K, 101.3 kPa, x1 = 0.3294) was 0.3762 ± 0.0038 mPa·s and the viscosity (298.15 K, 101.3 kPa, x1 = 0.4644) was 0.4191 ± 0.0041 mPa·s. For the same compound, the viscosity (298.15 K, 101.3 kPa, x1 = 0.5644) was 0.4558 ± 0.0044 mPa·s, the viscosity (298.15 K, 101.3 kPa, x1 = 0.6697) was 0.4996 ± 0.0048 mPa·s and the viscosity (298.15 K, 101.3 kPa, x1 = 0.8002) was 0.5626 ± 0.0053 mPa·s. For the same compound, the viscosity (298.15 K, 101.3 kPa, x1 = 0.8967) was 0.6164 ± 0.0057 mPa·s, the viscosity (298.15 K, 101.3 kPa, x1 = 0.9324) was 0.6456 ± 0.0059 mPa·s and the viscosity (308.15 K, 101 kPa, x1 = 0.0521) was 0.282 ± 0.004 mPa·s. For the same compound, the viscosity (308.15 K, 101 kPa, x1 = 0.1491) was 0.3 ± 0.004 mPa·s, the viscosity (308.15 K, 101 kPa, x1 = 0.2486) was 0.321 ± 0.004 mPa·s and the viscosity (308.15 K, 101 kPa, x1 = 0.3517) was 0.346 ± 0.004 mPa·s. It also gave a viscosity (308.15 K, 101 kPa, x1 = 0.4482) of 0.372 ± 0.004 mPa·s, a viscosity (308.15 K, 101 kPa, x1 = 0.4932) of 0.385 ± 0.004 mPa·s and a viscosity (308.15 K, 101 kPa, x1 = 0.5515) of 0.403 ± 0.004 mPa·s. It also gave a viscosity (308.15 K, 101 kPa, x1 = 0.6483) of 0.436 ± 0.004 mPa·s, a viscosity (308.15 K, 101 kPa, x1 = 0.7486) of 0.474 ± 0.004 mPa·s and a viscosity (308.15 K, 101 kPa, x1 = 0.8491) of 0.517 ± 0.004 mPa·s. It also gave a viscosity (308.15 K, 101 kPa, x1 = 0.9461) of 0.565 ± 0.005 mPa·s.
